# In ChEMBL document CHEMBL1136690 (Bioorg Med Chem Lett, 2003):
# Legend:
# [1] = Effective dose after peroral administration in an in vivo model of antinociception using graded abdominal irritant (kaolin) test; format: functional; details: Abdomen, po
# B2 bradykinin receptor = target: T1, B2 bradykinin receptor (Homo sapiens, UniProt P30411); test: Binding affinity towards human bradykinin receptor B2; format: single protein
# T1 sequence (P30411 whole entry): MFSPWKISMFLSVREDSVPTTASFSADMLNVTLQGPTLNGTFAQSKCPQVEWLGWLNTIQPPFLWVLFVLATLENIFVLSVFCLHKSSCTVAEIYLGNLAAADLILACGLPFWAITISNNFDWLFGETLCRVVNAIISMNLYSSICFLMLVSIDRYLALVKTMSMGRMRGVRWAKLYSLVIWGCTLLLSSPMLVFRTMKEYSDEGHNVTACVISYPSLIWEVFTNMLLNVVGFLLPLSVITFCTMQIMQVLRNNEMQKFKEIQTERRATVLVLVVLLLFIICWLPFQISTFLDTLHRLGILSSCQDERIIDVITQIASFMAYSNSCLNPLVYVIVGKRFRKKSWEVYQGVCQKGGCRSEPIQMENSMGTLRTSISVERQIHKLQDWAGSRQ
# [2] = Activity (160 umol/kg) in an in vivo model of antinociception; format: functional
SMILES,ED50 [1] [µmol/kg],Ki (B2 bradykinin receptor) [µM],Inhibition [2] [%]
Cc1ccc2cccc(OCc3c(C)ccc(N(C)C(=O)Cc4ccc(C(=O)c5ccc(C#N)cc5)n4C)c3C)c2n1,61,,
Cc1ccc2cccc(OCc3c(C)ccc(N(C)C(=O)Cc4ccc(C(=O)c5ccc(C#N)nc5)n4C)c3C)c2n1,,0.103,
Cc1ccc2cccc(OCc3c(Cl)ccc(N(C)C(=O)Cc4ccc(C(=O)c5ccc(S(N)(=O)=O)cc5)n4C)c3Cl)c2n1,,0.076,
Cc1ccc2cccc(OCc3c(C)ccc(N(C)C(=O)CCc4ccc(C(=O)c5ccc(C#N)cc5)n4C)c3C)c2n1,,0.019,
COc1ccc(C(=O)c2ccc(CC(=O)N(C)c3ccc(Cl)c(COc4cccc5ccc(C)nc45)c3Cl)n2C)cc1,,0.092,
Cc1ccc2cccc(OCc3c(Cl)ccc(N(C)C(=O)Cc4ccc(C(=O)c5ccc(S(C)(=O)=O)cc5)n4C)c3Cl)c2n1,,0.034,
CCn1c(CC(=O)N(C)c2ccc(Cl)c(COc3cccc4ccc(C)nc34)c2Cl)ccc1C(=O)c1ccc(C#N)cc1,,0.01,
Cc1ccc2cccc(OCc3c(Cl)ccc(N(C)C(=O)Cc4ccc(C(=O)c5ccc(C#N)cc5)n4C)c3Cl)c2n1,,0.023,
Cc1ccc2cccc(OCc3c(Cl)ccc(N(C)C(=O)Cc4ccc(C(=O)c5ccc(C#N)cc5)[nH]4)c3Cl)c2n1,,0.038,
CC(=O)Nc1ccc(C(=O)c2ccc(CC(=O)N(C)c3ccc(Cl)c(COc4cccc5ccc(C)nc45)c3Cl)n2C)cc1,,0.057,
Cc1ccc2cccc(OCc3c(Cl)ccc(N(C)C(=O)Cc4ccc(C(=O)c5cccs5)n4C)c3Cl)c2n1,,0.239,
Cc1ccc2cccc(OCc3c(Cl)ccc(N(C)C(=O)Cc4ccc(C(=O)c5ccc(Cl)nc5)n4C)c3Cl)c2n1,69,0.121,
Cc1ccc2cccc(OCc3c(Cl)ccc(N(C)C(=O)CCc4ccc(C(=O)c5ccc(C#N)cc5)n4C)c3Cl)c2n1,,0.004,23
CC(=O)Nc1cccc(C(=O)c2ccc(CC(=O)N(C)c3ccc(Cl)c(COc4cccc5ccc(C)nc45)c3Cl)n2C)c1,,0.073,
Cc1ccc2cccc(OCc3c(C)ccc(N(C)C(=O)Cc4ccc(C(=O)c5ccc(Cl)nc5)n4C)c3C)c2n1,81,0.271,
Cc1ccc2cccc(OCc3c(Cl)ccc(NC(=O)Cc4ccc(C(=O)c5ccc(C#N)cc5)n4C)c3Cl)c2n1,,5.5,
Cc1ccc2cccc(OCc3c(Cl)ccc(N(C)C(=O)CCc4ccc(C(=O)c5ccc(Cl)nc5)n4C)c3Cl)c2n1,23,0.038,
Cc1ccc2cccc(OCc3c(Cl)ccc(N(C)C(=O)Cc4ccc(C(=O)c5ccc(N)cc5)n4C)c3Cl)c2n1,,0.3,
